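All cell lines were grown in 96-well plates and treated with compound for 48 hours. GI50 is the concentration that inhibits growth by half.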 Active and inactive are the calls of the source. Rule as the data show it: active = GI50 up to about 1.1 µM and inactive = higher.
Experiments:
Assay in all cases: NCI anticancer screen, dose series, 48 h
[1] = system: SK-MEL-28
[2] = system: Malme-3M
[3] = system: EKVX
[4] = system: HOP-92
[5] = system: SF-268
[6] = system: OVCAR-8
[7] = system: CAKI-1
[8] = system: A549
[9] = system: NCI-H460
[10] = system: SW-620
[11] = system: SN12C
[12] = system: HT-29
[13] = system: SNB-19
[14] = system: NCI-H522
[15] = system: OVCAR-3
[16] = system: TK-10
[17] = system: MOLT-4
[18] = system: NCI-H226
[19] = system: NCI/ADR-RES

Measured: GI50

O=C1Cc2ccccc2N1c1c(Cl)cccc1Cl
inactive: [1] 54 µM | [2] 56.8 µM | [3] 63.5 µM | [4] 50.2 µM | [5] 71 µM | [6] 93.3 µM | [7] 61.1 µM | [8] 50.2 µM | [9] 97.5 µM | [10] 38.6 µM | [11] 89.1 µM | [12] 34.3 µM | [13] 79.1 µM | [14] 24.6 µM | [15] 57.1 µM | [16] 98.4 µM | [17] 22.6 µM | [18] 37.9 µM

COc1ccc(NC(=O)C(=O)Cc2ccc([N+](=O)[O-])c([N+](=O)[O-])c2CC(=O)C(=O)Nc2ccc(OC)cc2OC)c(OC)c1
inactive: [1] > 100 µM | [2] > 100 µM | [3] > 100 µM | [4] > 100 µM | [5] > 100 µM | [6] > 100 µM | [7] > 100 µM | [8] > 100 µM | [9] > 100 µM | [10] > 100 µM | [11] > 100 µM | [12] > 100 µM | [13] > 100 µM | [14] 58.6 µM | [15] > 100 µM | [16] > 100 µM | [17] > 100 µM | [18] > 100 µM

CCOC(=O)c1cc(Cl)ccc1OC(N)=O
inactive: [1] > 100 µM | [3] > 100 µM | [4] > 100 µM | [5] > 100 µM | [6] > 100 µM | [7] > 100 µM | [8] > 100 µM | [9] > 100 µM | [10] > 100 µM | [11] > 100 µM | [12] > 100 µM | [13] > 100 µM | [15] > 100 µM | [19] > 100 µM | [17] > 100 µM | [18] > 100 µM

CC1(c2ccc(F)cc2)C(C#N)C(=O)NC(=O)C1C#N (centres undefined)
inactive: [1] > 100 µM | [2] > 100 µM | [3] 58.1 µM | [4] > 100 µM | [5] > 100 µM | [6] > 100 µM | [7] > 100 µM | [8] > 100 µM | [9] > 100 µM | [10] > 100 µM | [11] > 100 µM | [12] > 100 µM | [13] > 100 µM | [14] > 100 µM | [15] > 100 µM | [16] > 100 µM | [17] > 100 µM | [18] > 100 µM

N/C(=N\O)N/N=C/c1ccc2c(c1)OCCO2
inactive: [1] 21.4 µM | [3] 9.27 µM | [4] 27 µM | [5] 4.81 µM | [6] 8.49 µM | [7] 16.4 µM | [8] 4.7 µM | [9] 7.55 µM | [10] 28.2 µM | [11] 29.6 µM | [12] 8.53 µM | [13] 9.82 µM | [14] 6.65 µM | [15] 3.15 µM | [19] 11.1 µM | [17] 19.1 µM | [18] 4.08 µM

CCc1cccc(CC)c1NC1=CC(=O)C(=O)c2ccccc21
inactive: [1] 15.6 µM | [2] 17.9 µM | [3] 14.1 µM | [4] 15.1 µM | [5] 22.5 µM | [6] 16.7 µM | [7] 18.9 µM | [8] 18.6 µM | [9] 19 µM | [10] 16.5 µM | [11] 27.5 µM | [12] 2.06 µM | [13] 23 µM | [14] 14.1 µM | [15] 2.84 µM | [16] 23.9 µM | [17] 45.7 µM | [18] 23 µM

COC(=O)CCC(=O)CC(=O)C1=NS(=O)(=O)c2nc(S(N)(=O)=O)c(Cl)cc2N1
inactive: [1] > 100 µM | [2] > 100 µM | [3] > 100 µM | [4] > 100 µM | [5] > 100 µM | [6] > 100 µM | [7] > 100 µM | [8] > 100 µM | [9] > 100 µM | [11] > 100 µM | [12] > 100 µM | [13] > 100 µM | [14] 64.3 µM | [15] > 100 µM | [16] > 100 µM | [17] > 100 µM | [18] > 100 µM

CC(C)(C1=NC(C(C)(C)C)CO1)C1=N[C@@H](C(C)(C)C)CO1 (some centres undefined)
inactive: [1] > 100 µM | [2] > 100 µM | [3] > 100 µM | [4] > 100 µM | [5] > 100 µM | [6] > 100 µM | [8] > 100 µM | [9] > 100 µM | [10] > 100 µM | [11] > 100 µM | [12] > 100 µM | [13] > 100 µM | [14] > 100 µM | [15] > 100 µM | [16] > 100 µM | [17] > 100 µM | [18] > 100 µM

From ChEMBL document CHEMBL1201862, “PubChem BioAssay data set” (2004)
